Experimental data as given in patent US10828315B2 (Madrigal Pharmaceuticals, Inc., priority 2013, dated 2020).
Read-outs that look alike come from different tables or passages of the source.

Columns and labels:
HER2 = HER2 degradation assay with BT-474 cell line (Example 12, FACS); format: cell-based, human
[1] = Artificial membrane permeability assay (PAMPA)
Description: Pre-coated PAMPA plates were warmed to room temperature for at least 30 minutes prior to adding assay components.
Stock solutions were prepared with the SDC-TRAP molecules to be tested. In order to make a working solution, either 50 μL of 100 μM Stock in DMSO+950 μL of PBS or 50 μL of 200 μM stock was added to 96 deep well plate, resulting in a 5 μM final concentration or a 10 μM final concentration, respectively. 3000 μL of the working solution containing each compound to be tested was added to the appropriate well of a donor PAMPA plate. 200 μL of PBS was added into the corresponding wells of an acceptor PAMPA plates.
The acceptor plate was lowered onto the donor plate and allowed to incubate for five hours. After five hours, a 50 μL aliquot was removed from each well of each plate and added into a new 96 deep-well plate.
100 μL of methanol containing an internal standard was added to each aliquot and analyzed by LC/MS.
In order to calculate the permeability for each SDC-TRAP molecule and the control molecules, the following formula was used:

[2] = Mouse plasma stability protocol, up to 1 h (Examples 16-18)
[3] = Tissue Distribution Data for SDC-TRAP-0154
[4] = Retention of docetaxel SDC-TRAPs in plasma and tumor (Example 53); format: in vivo, Female SCID Mouse (H1975); details: DRD
Description: Blood samples (˜300 μL) were collected by cardiac puncture and immediately centrifuged at 6000 rpm for 8 minutes at approximately 4° C. Resulting plasma samples (˜150 μL) were stored at −80° C. until analysis.
Following sacrifice, tumors were immediately dissected on ice, flash frozen in liquid N2, and stored at −80° C. until analysis.
To 55 μL of plasma samples, 200 μL of methanol containing 150-250 ng/mL internal standard(s) was added. Samples were vortex mixed for approximately 1.5 minutes at ambient temperature and then centrifuged at 4400 rpm for 10 mm at approximately 4° C. The resulting supernatants (175 μL) were transferred to a 96-well plate and dried under nitrogen at 40° C. Dried samples were reconstituted with 100 μL 50/50 (v/v) water/methanol, vortex mixed and 10 μL were injected into LC-MS/MS.
Tumor samples were weighed and homogenized in 5 volume of ice-cold phosphate buffered saline on ice using a hand-held homogenizer. To 55 μL of tumor homogenate samples, 200 μL of methanol containing 150-250 ng/mL internal standard(s) was added. Samples were vortex mixed for approximately 1.5 minutes at ambient temperature and then centrifuged at 4400 rpm for 10 min at approximately 4° C. The resulting supernatants (175 μL) were transferred to a 96-well plate and dried under nitrogen at 40° C. Dried samples were reconstituted with 100 μL 50/50 (v/v) water/methanol, vortex mixed and 10 μL were injected into LC-MS/MS.
Plasma and tumor samples were analyzed by LC-MS/MS using an Agilent 1100 HPLC (Agilent Technologies, Santa Clara, Calif.) interfaced to an API 4000 tandem mass spectrometer (Applied Biosystems, Foster City, Calif.). […] The flow rate was 0.5 mL/min. […] Quantitation for each analyte was done by extrapolation from a standard curve ranging from 2.50 to 50000 nM with 1/x^2 weighting.
Blood samples (˜300 μL) were collected by cardiac puncture and immediately centrifuged at 6000 rpm for 8 minutes at approximately 4° C. Resulting plasma samples (˜150 μL) were transferred to Eppendorf tubes containing approximately 5-10 mg of NaF, vortex mixed, and stored at −80° C. until analysis.
Following sacrifice tumors were immediately dissected on ice, flash frozen in liquid N2, and stored at −80° C. until analysis.
To 60 μL of plasma samples, 25 μL of 75/25 (v/v) water/acetonitrile containing 100 ng/mL internal standard(s) and 200 μL of acetonitrile were added. Samples were vortex mixed for approximately 2 minutes at ambient temperature and then centrifuged at 4400 rpm for 10 min at approximately 4° C. The resulting supernatants (300 μL) were transferred to a 96-well plate and dried under nitrogen at 40° C. Dried samples were reconstituted with 500 μL 60/40 (v/v) water/acetonitrile, vortex mixed and 10 μL were injected into LC-MS/MS.
Tumor samples were weighed and homogenized in 3 volume of ice-cold phosphate buffered saline on ice using a hand-held homogenizer. To 60 μL of tumor homogenate samples, 25 μL of 75/25 (v/v) water/acetonitrile containing 100 ng/mL internal standard(s) and 200 μL of acetonitrile were added. […] The resulting supernatants (200 μL) were transferred to a 96-well plate and dried under nitrogen at 40° C. Dried samples were reconstituted with 600 μL 60/40 (v/v) water/acetonitrile, vortex mixed and 10 μL were injected into LC-MS/MS.
Plasma and tumor samples were analyzed by LC-MS/MS using an Agilent 1100 HPLC (Agilent Technologies, Santa Clara, Calif.) interfaced to an API 4000 tandem mass spectrometer (Applied Biosystems, Foster City, Calif.). The separation of analytes were performed on a Symmetry Shield Sum C18 (2.1×100 mm; 100 Å) column (Waters, Milford, Mass.) with a run time of 5.0 mm per sample using the mobile phase consisted of 0.1% formic acid (A) and acetonitrile containing 0.1% formic acid (B). […] Quantitation for each analyte was done by extrapolation from a standard curve ranging from 1.00 to 25000 ng/mL with 1/x^2 weighting.

[5] = of analyte at 24 h, dosed SDC-TRAP-0427 25 mg/10 mL/kg IV, Table 4
[6] = of analyte at 48 h, dosed SDC-TRAP-0427 25 mg/10 mL/kg IV, Table 4
[7] = of analyte at 72 h, dosed SDC-TRAP-0427 25 mg/10 mL/kg IV, Table 4
[8] = of analyte at 48 h, dosed SDC-TRAP-0428 25 mg/10 mL/kg IV, Table 4
[9] = of analyte at 48 h, dosed SDC-TRAP-0423 7 mg/10 mL/kg IV, Table 5, second optimized procedure
[10] = of analyte at 72 h, dosed SDC-TRAP-0423 7 mg/10 mL/kg IV, Table 5, second optimized procedure

CCc1c2c(nc3ccc(OC(=O)N4CCC[C@H]4C(=O)N4CCC(CCn5ccc6cc(-n7c(O)nnc7-c7cc(C(C)C)c(O)cc7O)ccc65)CC4)cc13)-c1cc3c(c(=O)n1C2)COC(=O)[C@]3(O)CC [SDC-TRAP-0210]
IC50 (HER2): > 10000 nM
Mass Retention ([1]; incubation 5 h, first table): 34.8%
Mass Retention ([1]; same protocol, second table): 72.2%

COc1cccc2c1C(=O)c1c(O)c3c(c(O)c1C2=O)C[C@@](O)(C(=O)CO)C[C@@H]3O[C@H]1C[C@H](N)[C@H](O)[C@H](C)O1 [Doxorubicin, doxorubicin, reference compound]
Mass Retention ([1]; incubation 5 h, first table): 21.0%

CCNC(=O)c1nnc(-c2cc(C(C)C)c(O)cc2O)n1-c1ccc2c(ccn2CCC2CCN(C(=O)O[C@]3(CC)C(=O)OCc4c3cc3n(c4=O)Cc4c-3nc3ccc(O)cc3c4CC)CC2)c1 [SDC-TRAP-0208, (S)-4,11-diethyl-9-hydroxy-3,14-dioxo-3,4,12,14-tetrahydro-1H-pyrano[3′,4′: 6,7]indolizino[1,2-b]quinolin-4-yl 4-(2-(5-(3-(2,4-dihydroxy-5-isopropylphenyl)-5-(ethylcarbamoyl)-4H-1,2,4-triazol-4-yl)-1H-indol-1-yl)ethyl)piperidine-1-carboxylate]
IC50 (HER2): 480 nM
Mass Retention ([1]; same protocol, second table): 25.0%
% Remaining (1 h) ([2]; % Remaining of parent after 1 h incubation in mouse plasma at 37° C. (10 μM)): 86.1%
% Remaining (1 h, 37° C.) ([2]; mouse plasma, 1 h, 37° C.): 86.1%

CC(C)c1cc(-c2nnc(O)n2-c2ccc3c(ccn3CCNC(=O)CCCCCNC(=O)CCCC[C@H]3SCC4NC(=O)NC43)c2)c(O)cc1O (stereo in doubt) [SDC-TRAP-0234, N-(2-(5-(3-(2,4-dihydroxy-5-isopropylphenyl)-5-hydroxy-4H-1,2,4-triazol-4-yl)-1H-indol-1-yl)ethyl)-6-(5-((3aR,4R,6aS)-2-oxohexahydro-1H-thieno[3,4-d]imidazol-4-yl)pentanamido)hexanamide]
Mass Retention ([1]; incubation 5 h, first table): 9.56%

CCNC(=O)c1nnc(-c2cc(C(C)C)c(O)cc2O)n1-c1ccc(Oc2ccc(C(=O)N3CCC(C(=O)OC4(CC)C(=O)OCc5c4cc4n(c5=O)Cc5c-4nc4ccc(O)cc4c5CC)CC3)cc2)cc1 (centres unmarked) [SDC-TRAP-0154, 4,11-Diethyl-9-hydroxy-3,14-dioxo-3,4,12,14-tetrahydro-1H-pyrano[3′,4′:6,7]indolizino[1,2-b]quinolin-4-yl 1-(4-(4-(3-(2,4-dihydroxy-5-isopropylphenyl)-5-(ethylcarbamoyl)-4H-1,2,4-triazol-4-yl)phenoxy)benzoyl)piperidine-4-carboxylate]
IC50 (HER2): 191 nM
Plasma Conc. ([3]; Time (h) 0.083): 928000 nM
Tumor Conc. ([3]; Time (h) 0.083): 11.8 nmol/g of tissue
Tumor/Plasma Ratio ([3]; Time (h) 0.083): 0.01
Plasma Conc. ([3]; Time (h) 1): 251000 nM
Tumor Conc. ([3]; Time (h) 1): 14.1 nmol/g of tissue
Tumor/Plasma Ratio ([3]; Time (h) 1): 0.06
Plasma Conc. ([3]; Time (h) 6): 5080 nM
Tumor Conc. ([3]; Time (h) 6): 9.46 nmol/g of tissue
Tumor/Plasma Ratio ([3]; Time (h) 6): 1.86
Plasma Conc. ([3]; Time (h) 24): 198 nM
Tumor Conc. ([3]; Time (h) 24): 2.35 nmol/g of tissue
Tumor/Plasma Ratio ([3]; Time (h) 24): 11.9
Plasma Conc. ([3]; Time (h) 48): 21.8 nM
Tumor Conc. ([3]; Time (h) 48): 1.88 nmol/g of tissue
Tumor/Plasma Ratio ([3]; Time (h) 48): 86.0
Mass Retention ([1]; same protocol, second table): 10.3%

CC(C)c1cc(-c2nnc(O)n2-c2ccc3c(ccn3CCNC(=O)CCCC[C@@H]3SCC4NC(=O)NC43)c2)c(O)cc1O (stereo in doubt) [SDC-TRAP-0233, N-(2-(5-(3-(2,4-dihydroxy-5-isopropylphenyl)-5-hydroxy-4H-1,2,4-triazol-4-yl)-1H-indol-1-yl)ethyl)-5-((3aS,4S,6aR)-2-oxohexahydro-1H-thieno[3,4-d]imidazol-4-yl)pentanamide]
Mass Retention ([1]; incubation 5 h, first table): 10.9%

CC(=O)O[C@@]12CO[C@@H]1C[C@H](O)[C@@]1(C)C(=O)[C@H](O)C3=C(C)[C@@H](OC(=O)[C@H](OC(=O)CCC(=O)NC4CCN(C(=O)C5CCN(Cc6ccc(-n7c(O)nnc7-c7cc(C(C)C)c(O)cc7O)cc6)CC5)CC4)[C@@H](NC(=O)OC(C)(C)C)c4ccccc4)C[C@@](O)([C@@H](OC(=O)c4ccccc4)[C@H]21)C3(C)C [SDC-TRAP-0427]
concentration at 6 h ([4]; female, SCID, mouse, in vivo, of analyte at 6 h, dosed SDC-TRAP-0427 7 mg/10 mL/kg IV, Table 5, second optimized procedure, read-out: Plasma Conc.): 8390 nM
concentration at 6 h ([4]; female, SCID, mouse, in vivo, of analyte at 6 h, dosed SDC-TRAP-0427 25 mg/10 mL/kg IV, Table 4, read-out: Plasma Conc.): 20900 nM
concentration at 48 h ([4]; female, SCID, mouse, in vivo, of analyte at 48 h, dosed SDC-TRAP-0427 7 mg/10 mL/kg IV, Table 5, second optimized procedure, read-out: Plasma Conc.): 11.8 nM
concentration at 72 h ([4]; female, SCID, mouse, in vivo, of analyte at 72 h, dosed SDC-TRAP-0427 7 mg/10 mL/kg IV, Table 5, second optimized procedure, read-out: Plasma Conc.): 10.1 nM
Tumor Conc. ([4]; of analyte at 6 h, dosed SDC-TRAP-0427 7 mg/10 mL/kg IV, Table 5, second optimized procedure): 1.19 nmol/g of tissue
Tumor Conc. ([4]; of analyte at 6 h, dosed SDC-TRAP-0427 25 mg/10 mL/kg IV, Table 4): 13.6 nmol/g of tissue
Plasma Conc. [4, 5]: BQL
Tumor Conc. [4, 5]: 14.6 nmol/g of tissue
Tumor Conc. ([4]; of analyte at 48 h, dosed SDC-TRAP-0427 7 mg/10 mL/kg IV, Table 5, second optimized procedure): 0.458 nmol/g of tissue
Plasma Conc. [4, 6]: BQL
Tumor Conc. [4, 6]: 8.02 nmol/g of tissue
Tumor Conc. ([4]; of analyte at 72 h, dosed SDC-TRAP-0427 7 mg/10 mL/kg IV, Table 5, second optimized procedure): 0.372 nmol/g of tissue
Plasma Conc. [4, 7]: BQL
Tumor Conc. [4, 7]: 7.18 nmol/g of tissue

Cn1c(=O)c2c(ncn2C)n(C)c1=O [Caffeine]
Mass Retention ([1]; incubation 5 h, first table): 20.8%
Mass Retention ([1]; same protocol, second table): −0.11%

CC(=O)O[C@@]12CO[C@@H]1C[C@H](O)[C@@]1(C)C(=O)[C@H](O)C3=C(C)[C@@H](OC(=O)[C@H](O)[C@@H](NC(=O)OC(C)(C)C)c4ccccc4)C[C@@](O)([C@@H](OC(=O)c4ccccc4)[C@H]21)C3(C)C [Docetaxel, docetaxel, reference compound]
Mass Retention ([1]; incubation 5 h, first table): 17.6%

CC(=O)O[C@@]12CO[C@@H]1C[C@H](O)[C@@]1(C)C(=O)[C@H](O)C3=C(C)[C@@H](OC(=O)[C@H](OC(=O)C4CCN(C(=O)C5CCN(Cc6ccc(-n7c(O)nnc7-c7cc(C(C)C)c(O)cc7O)cc6)CC5)CC4)[C@@H](NC(=O)OC(C)(C)C)c4ccccc4)C[C@@](O)([C@@H](OC(=O)c4ccccc4)[C@H]21)C3(C)C [SDC-TRAP-0428]
Tumor Conc. ([4]; of analyte at 6 h, dosed SDC-TRAP-0428 25 mg/10 mL/kg IV, Table 4): 5.27 nmol/g of tissue
Tumor Conc. ([4]; of analyte at 24 h, dosed SDC-TRAP-0428 25 mg/10 mL/kg IV, Table 4): 3.89 nmol/g of tissue
Plasma Conc. [4, 8]: BQL
Tumor Conc. [4, 8]: 3.40 nmol/g of tissue
Tumor Conc. ([4]; of analyte at 72 h, dosed SDC-TRAP-0428 25 mg/10 mL/kg IV, Table 4): 1.20 nmol/g of tissue

CC(C)c1cc(-c2nnc(O)n2-c2ccc3c(ccn3CCOCCNC(=O)CCn3cc(F)c(=O)[nH]c3=O)c2)c(O)cc1O [SDC-TRAP-0048, N-(2-(2-(5-(3-(2,4-dihydroxy-5-isopropylphenyl)-5-hydroxy-4H-1,2,4-triazol-4-yl)-1H-indol-1-yl)ethoxy)ethyl)-3-(5-fluoro-2,4-dioxo-3,4-dihydropyrimidin-1(2H)-yl)propanamide]
Mass Retention ([1]; incubation 5 h, first table): 10.8%

CCNC(=O)c1nnc(-c2cc(C(C)C)c(O)cc2O)n1-c1ccc(N(C)C2CCN(C(=O)CCC(=O)O[C@H](C(=O)O[C@@H]3C[C@]4(O)[C@H](OC(=O)c5ccccc5)[C@H]5C6(OC(C)=O)COC6C[C@@H](O)[C@]5(C)C(=O)[C@@H](O)C(=C3C)C4(C)C)[C@H](NC(=O)OC(C)(C)C)c3ccccc3)CC2)nc1 (some centres unmarked) [SDC-TRAP-0423]
concentration at 6 h ([4]; female, SCID, mouse, in vivo, of analyte at 6 h, dosed SDC-TRAP-0423 7 mg/10 mL/kg IV, Table 5, second optimized procedure, read-out: Plasma Conc.): 2210 nM
Tumor Conc. ([4]; of analyte at 6 h, dosed SDC-TRAP-0423 7 mg/10 mL/kg IV, Table 5, second optimized procedure): 0.730 nmol/g of tissue
Plasma Conc. [4, 9]: BQL
Tumor Conc. [4, 9]: 0.0538 nmol/g of tissue
Plasma Conc. [4, 10]: BQL
Tumor Conc. [4, 10]: 0.0186 nmol/g of tissue

CC(C)c1cc(-c2nnc(C(=O)NCCCCCS(N)(=O)=O)n2-c2ccc(CN3CCOCC3)cc2)c(O)cc1O [SDC-TRAP-0232, 5-(2,4-dihydroxy-5-isopropylphenyl)-4-(4-(morpholinomethyl)phenyl)-N-(5-sulfamoylpentyl)-4H-1,2,4-triazole-3-carboxamide]
Mass Retention ([1]; incubation 5 h, first table): 21.0%

CC(C)c1cc(-c2nnc(O)n2-c2ccc(CN3CCN(C(=O)CCn4cc(F)c(=O)[nH]c4=O)CC3)cc2)c(O)cc1O [SDC-TRAP-0049, 1-(3-(4-(4-(3-(2,4-dihydroxy-5-isopropylphenyl)-5-hydroxy-4H-1,2,4-triazol-4-yl)benzyl)piperazin-1-yl)-3-oxopropyl)-5-fluoropyrimidine-2,4(1H,3H)-dione]
Mass Retention ([1]; incubation 5 h, first table): 14.1%

CCNC(=O)c1nnc(-c2cc(C(C)C)c(O)cc2O)n1-c1ccc(CN2CCC(C(=O)N[C@@H](CC(C)C)C(=O)Nc3cccc4c3CN(C3CCC(=O)NC3=O)C4=O)CC2)cc1 (stereo partly drawn) [SDC-TRAP-0193, 1-(4-(3-(2,4-dihydroxy-5-isopropylphenyl)-5-(ethylcarbamoyl)-4H-1,2,4-triazol-4-yl)benzyl)-N-((2S)-1-((2-(2,6-dioxopiperidin-3-yl)-1-oxoisoindolin-4-yl)amino)-4-methyl-1-oxopentan-2-yl)piperidine-4-carboxamide]
Mass Retention ([1]; incubation 5 h, first table): 10.2%
